Measurements taken from the NIST ThermoML archive (doi:10.1016/j.fluid.2004.09.013).
Numbers after ± are expanded uncertainties.

Details: for mass density: Fluid (supercritical or subcritical phases), Vibrating tube method; for vapor or sublimation pressure: Liquid

C=CCC [1-butene]
Details	mass density [kg/m3]
333.22 K, 1276 kPa	542.42 ± 1.1
333.22 K, 4994 kPa	552.72 ± 1.1
333.22 K, 10001 kPa	564.22 ± 1.2
333.22 K, 14993 kPa	573.92 ± 1.2
333.22 K, 20000 kPa	582.4 ± 1.3
333.22 K, 24986 kPa	589.92 ± 1.3
333.22 K, 29987 kPa	596.76 ± 1.3
333.22 K, 35007 kPa	603.04 ± 1.4
333.22 K, 40005 kPa	608.82 ± 1.4
338.22 K, 1372 kPa	535.11 ± 1.1
338.22 K, 4996 kPa	545.96 ± 1.1
338.22 K, 9985 kPa	558.18 ± 1.2
338.22 K, 14991 kPa	568.42 ± 1.2
338.22 K, 19988 kPa	577.27 ± 1.2
338.22 K, 25002 kPa	585.14 ± 1.3
338.22 K, 29995 kPa	592.2 ± 1.3
338.22 K, 34993 kPa	598.67 ± 1.4
338.22 K, 39988 kPa	604.63 ± 1.4
343.22 K, 1477 kPa	527.59 ± 1.1
343.22 K, 4989 kPa	538.99 ± 1.1
343.22 K, 9987 kPa	552.06 ± 1.2
343.22 K, 14985 kPa	562.84 ± 1.2
343.22 K, 19995 kPa	572.12 ± 1.2
343.22 K, 24993 kPa	580.29 ± 1.3
343.22 K, 29995 kPa	587.63 ± 1.3
343.22 K, 34993 kPa	594.3 ± 1.4
343.22 K, 39996 kPa	600.44 ± 1.4
348.22 K, 9989 kPa	545.85 ± 1.1
348.22 K, 24986 kPa	575.42 ± 1.3
348.23 K, 1592 kPa	519.85 ± 1.1
348.23 K, 4984 kPa	531.84 ± 1.1
348.23 K, 14988 kPa	557.22 ± 1.2
348.23 K, 20000 kPa	566.94 ± 1.2
348.23 K, 29995 kPa	583.02 ± 1.3
348.23 K, 35000 kPa	589.94 ± 1.4
348.23 K, 39996 kPa	596.25 ± 1.4
353.23 K, 1715 kPa	511.85 ± 1.1
353.23 K, 4999 kPa	524.53 ± 1.1
353.23 K, 9991 kPa	539.5 ± 1.1
353.23 K, 14992 kPa	551.53 ± 1.2
353.23 K, 19991 kPa	561.68 ± 1.2
353.23 K, 24984 kPa	570.52 ± 1.3
353.23 K, 30003 kPa	578.41 ± 1.3
353.23 K, 34996 kPa	585.54 ± 1.4
353.23 K, 40004 kPa	592.05 ± 1.4
358.23 K, 1846 kPa	503.54 ± 1
358.23 K, 4995 kPa	516.91 ± 1.1
358.23 K, 9989 kPa	533.03 ± 1.1
358.23 K, 14984 kPa	545.76 ± 1.2
358.23 K, 19997 kPa	556.43 ± 1.2
358.23 K, 25002 kPa	565.63 ± 1.3
358.23 K, 30007 kPa	573.81 ± 1.3
358.23 K, 34991 kPa	581.14 ± 1.4
358.23 K, 39997 kPa	587.85 ± 1.4
363.23 K, 1991 kPa	494.93 ± 1
363.23 K, 4996 kPa	509.02 ± 1.1
363.23 K, 9987 kPa	526.43 ± 1.1
363.23 K, 14995 kPa	539.91 ± 1.2
363.23 K, 19993 kPa	551.05 ± 1.2
363.23 K, 24987 kPa	560.63 ± 1.3
363.23 K, 29994 kPa	569.1 ± 1.3
363.23 K, 35013 kPa	576.7 ± 1.4
363.23 K, 39993 kPa	583.59 ± 1.4
368.23 K, 2145 kPa	485.95 ± 1
368.23 K, 4994 kPa	500.81 ± 1.1
368.23 K, 10001 kPa	519.71 ± 1.1
368.23 K, 15000 kPa	534.01 ± 1.2
368.23 K, 19992 kPa	545.69 ± 1.2
368.23 K, 24989 kPa	555.66 ± 1.2
368.23 K, 29994 kPa	564.43 ± 1.3
368.23 K, 34993 kPa	572.27 ± 1.4
368.23 K, 39995 kPa	579.38 ± 1.4
373.23 K, 2313 kPa	476.57 ± 0.99
373.23 K, 10000 kPa	512.83 ± 1.1
373.23 K, 19991 kPa	540.27 ± 1.2
373.23 K, 24984 kPa	550.66 ± 1.2
373.23 K, 30002 kPa	559.76 ± 1.3
373.23 K, 35005 kPa	567.88 ± 1.3
373.23 K, 39997 kPa	575.19 ± 1.4
373.24 K, 5000 kPa	492.29 ± 1
373.24 K, 15001 kPa	528.02 ± 1.1
378.23 K, 4992 kPa	483.29 ± 1
378.23 K, 40004 kPa	571.03 ± 1.4
378.24 K, 2492 kPa	466.71 ± 0.98
378.24 K, 9989 kPa	505.75 ± 1.1
378.24 K, 14998 kPa	521.94 ± 1.1
378.24 K, 20001 kPa	534.83 ± 1.2
378.24 K, 24999 kPa	545.69 ± 1.2
378.24 K, 30000 kPa	555.11 ± 1.3
378.24 K, 35012 kPa	563.49 ± 1.3
383.24 K, 2679 kPa	456.23 ± 0.96
383.24 K, 5001 kPa	473.89 ± 1
383.24 K, 9994 kPa	498.55 ± 1.1
383.24 K, 14998 kPa	515.79 ± 1.1
383.24 K, 19999 kPa	529.35 ± 1.2
383.24 K, 24986 kPa	540.63 ± 1.2
383.24 K, 29986 kPa	550.4 ± 1.3
383.24 K, 34993 kPa	559.06 ± 1.3
383.24 K, 39986 kPa	566.81 ± 1.4
388.24 K, 2883 kPa	445.15 ± 0.94
388.24 K, 4993 kPa	463.82 ± 0.98
388.24 K, 9989 kPa	491.12 ± 1.1
388.24 K, 14987 kPa	509.52 ± 1.1
388.24 K, 20000 kPa	523.81 ± 1.2
388.24 K, 24990 kPa	535.58 ± 1.2
388.24 K, 29995 kPa	545.72 ± 1.3

Details	vapor or sublimation pressure [kPa]
337.04 K	833.9 ± 2.9
337.68 K	845.55 ± 2.9
345.48 K	1009.7 ± 3.5
353.71 K	1207.9 ± 4.2
358.53 K	1337.5 ± 4.6
361.4 K	1416.5 ± 4.9
366.99 K	1590.4 ± 5.5
367.1 K	1594.8 ± 5.5
379.44 K	2014.2 ± 6.7
386.99 K	2310.4 ± 7.8
